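Method: 48-hour compound exposure of cells in 96-well plates, five concentrations, linear interpolation of endpoints. GI50 is the concentration that inhibits growth by half.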 Calls of active or inactive are those of the source. Rule as the data show it: active = GI50 up to about 1.1 µM and inactive = higher.

Some test systems named below: CAKI-1; HCT-15; IGROV-1; K562; NCI-H23; NCI-H460; NCI-H522; PC-3; SF-539; SK-MEL-2; SR; SW-620; T47D.
Holding throughout (assay): NCI anticancer screen, dose series, 48 h

As to `CCOC(=O)C(NC(=O)CC)(Nc1ccccc1F)C(F)(F)F` (stereo not drawn), the GI50 in the assay with CAKI-1 was > 100 µM (inactive); in the assay on HCT-15, greater than 100 µM; in the assay with IGROV-1, > 100 µM (inactive); in the assay with K562, 86.9 µM (inactive); with NCI-H23, > 100 µM (inactive); in the assay on NCI-H460 it was > 100 µM (inactive). In addition, the GI50 in the assay on NCI-H522, in the assay with PC-3, in the assay with SF-539, in the assay with SK-MEL-2, in the assay on SR and in the assay on SW-620 was > 100 µM (inactive) in each case. In addition, the GI50 with T47D was 38.4 µM (inactive).

These data come from ChEMBL document CHEMBL1201862, “PubChem BioAssay data set” (2004).
